# Molecular target: bovine cardiac myosin (Bos taurus, UniProt Q9BE39)
# Assay: Myosin activation assay (PK/LDH-coupled ATPase, bovine cardiac myofibrils)
# Assay type: biochemical
# Settings: AC20 = concentration at which total response is increased by twenty percent
# Experimental: Small molecule agents were assessed for their ability to activate the enzymatic activity of bovine cardiac myosin using a biochemical assay that couples the release of ADP (adenosine diphosphate) from cardiac myosin to an enzymatic coupling system consisting of pyruvate kinase and lactate dehydrogenase (PK/LDH) and monitoring the absorbance decrease of NADH (at 340 nm) as a function of time. PK converts ADP to ATP (adenosine triphosphate) by converting PEP (phosphoenolpyruvate) to pyruvate. Pyruvate is then converted to lactate by LDH by converting NADH (nicotinamide adenine dinucleotide) to NAD (oxidized nicotinamide adenine dinucleotide). The source of cardiac myosin was from bovine heart in the form of skinned myofibrils. Prior to testing small molecule agents, the bovine myofibrils were assessed for their calcium responsiveness and the calcium concentration that achieves either a 50% (pCa50 or pCa=˜6) or <5% (pCa=10) activation of the myofibril system was chosen as the final condition for assessing the activation activity of the small molecule agents. All enzymatic activity was measured in a buffered solution containing 12 mM PIPES (piperazine-N,N′-bis(2-ethanesulfonic acid), 2 mM magnesium chloride at pH 6.8 (PM12 buffer). Final assay conditions were 1 mg/mL of bovine cardiac myofibrils, 0.4 mM PK/LDH, 50 uM ATP, 0.1 mg/mL BSA (bovine serum albumin), 10 ppm antifoam, 2 mM BME, 0.5 mM NADH, 1.5 mM PEP at the desired free calcium concentration required to achieve either 50% or <5% activation of the myofibrils.
# A dilution series of compound was created in DMSO such that the final desired concentration of compound would be achieved in a volume of […] with a fixed DMSO concentration of 3.3% (v/v). Typically a 1 μL of the dilution series was added to a 384 well plate to achieve a 10 point dose response. Following the addition of 14 μL of a solution containing bovine cardiac myofibrils, PK/LDH and a solution of calcium (that achieved the desired activation), the enzymatic reaction was started with the addition of 15 μL of a solution containing ATP, PEP and NADH. The reaction progress was followed in a PerkinElmer Envision plate reader at ambient temperature using clear bottom plates. The plate reader was configured to read absorbance at 340 nm in kinetics mode for 15 minutes. Data were recorded as the slope of the absorbance response to time. The slopes of the absorbance response as a function of time were normalized to slopes on the plate containing DMSO. This normalized rate was then plotted as a function of small molecule concentration and the data was fitted to a four-parameter fit using EXCEL XLfit. The concentration at which the total response is increased by twenty or fifty percent is reported as AC20 or AC50.
# Chain of bovine cardiac myosin (Q9BE39 whole entry): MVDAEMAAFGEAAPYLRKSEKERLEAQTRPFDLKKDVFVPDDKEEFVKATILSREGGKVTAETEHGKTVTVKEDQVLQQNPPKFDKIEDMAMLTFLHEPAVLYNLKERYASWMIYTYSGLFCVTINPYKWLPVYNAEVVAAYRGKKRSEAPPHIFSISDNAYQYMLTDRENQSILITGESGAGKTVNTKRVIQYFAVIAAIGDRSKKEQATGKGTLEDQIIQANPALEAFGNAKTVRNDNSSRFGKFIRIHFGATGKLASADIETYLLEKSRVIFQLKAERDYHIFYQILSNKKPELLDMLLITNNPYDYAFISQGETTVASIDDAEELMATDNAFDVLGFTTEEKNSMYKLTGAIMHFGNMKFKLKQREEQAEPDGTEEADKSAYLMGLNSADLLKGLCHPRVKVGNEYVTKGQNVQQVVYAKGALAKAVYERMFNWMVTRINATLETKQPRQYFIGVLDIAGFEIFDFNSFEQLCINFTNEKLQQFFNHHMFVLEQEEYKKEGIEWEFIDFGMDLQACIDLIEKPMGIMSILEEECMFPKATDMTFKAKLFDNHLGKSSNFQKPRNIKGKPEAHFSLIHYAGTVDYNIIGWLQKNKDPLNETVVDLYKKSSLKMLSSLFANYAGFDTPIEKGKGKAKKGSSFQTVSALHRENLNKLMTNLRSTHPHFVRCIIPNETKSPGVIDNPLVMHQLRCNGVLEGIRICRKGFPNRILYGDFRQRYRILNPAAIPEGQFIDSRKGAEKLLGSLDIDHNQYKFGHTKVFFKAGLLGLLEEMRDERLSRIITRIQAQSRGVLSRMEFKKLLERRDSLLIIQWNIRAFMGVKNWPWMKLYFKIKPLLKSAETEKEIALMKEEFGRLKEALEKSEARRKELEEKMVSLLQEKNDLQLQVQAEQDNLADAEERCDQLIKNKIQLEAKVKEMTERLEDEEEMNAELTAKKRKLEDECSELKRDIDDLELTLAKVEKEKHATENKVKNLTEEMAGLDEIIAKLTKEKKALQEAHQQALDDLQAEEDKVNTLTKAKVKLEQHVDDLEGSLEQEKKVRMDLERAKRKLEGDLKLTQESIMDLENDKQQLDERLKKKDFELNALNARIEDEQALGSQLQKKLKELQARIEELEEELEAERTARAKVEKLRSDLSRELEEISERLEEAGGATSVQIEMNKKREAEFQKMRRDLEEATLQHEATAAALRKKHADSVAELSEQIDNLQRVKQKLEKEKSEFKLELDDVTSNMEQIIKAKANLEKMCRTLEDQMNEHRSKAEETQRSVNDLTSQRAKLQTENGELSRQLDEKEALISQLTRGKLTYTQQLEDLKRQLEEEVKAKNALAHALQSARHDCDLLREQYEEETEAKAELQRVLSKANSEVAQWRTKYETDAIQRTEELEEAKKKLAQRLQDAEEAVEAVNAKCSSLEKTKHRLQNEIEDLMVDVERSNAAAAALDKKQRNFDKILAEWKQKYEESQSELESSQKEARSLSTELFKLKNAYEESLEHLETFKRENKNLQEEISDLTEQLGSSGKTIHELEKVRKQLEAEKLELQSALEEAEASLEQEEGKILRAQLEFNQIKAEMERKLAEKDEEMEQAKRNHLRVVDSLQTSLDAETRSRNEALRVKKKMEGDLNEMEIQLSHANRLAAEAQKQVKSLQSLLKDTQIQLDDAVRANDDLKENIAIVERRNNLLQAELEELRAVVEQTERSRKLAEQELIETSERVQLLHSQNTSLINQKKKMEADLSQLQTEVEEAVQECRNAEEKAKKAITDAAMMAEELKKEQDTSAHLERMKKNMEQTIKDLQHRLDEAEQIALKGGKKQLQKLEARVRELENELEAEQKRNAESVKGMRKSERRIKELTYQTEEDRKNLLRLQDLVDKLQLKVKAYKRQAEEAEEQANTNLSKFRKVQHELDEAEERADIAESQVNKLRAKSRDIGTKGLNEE
# Chain of bovine cardiac myosin (P85100 whole entry partner): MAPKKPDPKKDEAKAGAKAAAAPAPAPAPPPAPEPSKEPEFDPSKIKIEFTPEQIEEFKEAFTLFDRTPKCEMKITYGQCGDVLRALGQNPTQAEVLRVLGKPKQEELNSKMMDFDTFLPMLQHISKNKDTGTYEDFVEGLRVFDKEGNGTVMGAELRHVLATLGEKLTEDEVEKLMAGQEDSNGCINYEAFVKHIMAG
# Chain of bovine cardiac myosin (Q3SZE5 whole entry partner): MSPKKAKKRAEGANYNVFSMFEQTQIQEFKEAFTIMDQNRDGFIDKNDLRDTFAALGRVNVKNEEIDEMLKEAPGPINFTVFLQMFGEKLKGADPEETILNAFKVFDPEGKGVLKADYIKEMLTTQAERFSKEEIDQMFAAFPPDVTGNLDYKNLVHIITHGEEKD
row,SMILES,Myosin Activation (AC20)
1,"Cn1cc(S(=O)(=O)C(C)(C)C2CCN(C(=O)Nc3cccnc3)CC2)c(C(F)F)n1 [Compound 118, 4-(2-((3-(difluoromethyl)-1-methyl-1H-pyrazol-4-yl)sulfonyl)propan-2-yl)-N-(pyridin-3-yl)piperidine-1-carboxamide]",+++ (+++ represents myosin activation value AC20 < 2 μM)
2,"Cn1nccc1S(=O)(=O)C(C)(C)C1CCN(C(=O)Nc2ccncc2)CC1 [Compound 194, 4-(2-((1-methyl-1H-pyrazol-5-yl)sulfonyl)propan-2-yl)-N-(pyridin-4-yl)piperidine-1-carboxamide]",++ (++ represents myosin activation value AC20 from 2 μM-5 μM)
3,"Cn1cc(NC(=O)N2CCC(C(C)(C)S(=O)(=O)c3cccc(F)c3)CC2)cn1 [Compound 139, 4-(2-((3-fluorophenyl)sulfonyl)propan-2-yl)-N-(1-methyl-1H-pyrazol-4-yl)piperidine-1-carboxamide]",+ (+ represents myosin activation value AC20 > 5 μM)
4,"Cn1cc(S(=O)(=O)C(C)(C)C2CCN(C(=O)Nc3ccc(F)nc3)CC2)c(C(F)F)n1 [Compound 117, 4-(2-((3-(difluoromethyl)-1-methyl-1H-pyrazol-4-yl)sulfonyl)propan-2-yl)-N-(6-fluoropyridin-3-yl)piperidine-1-carboxamide]",++ (++ represents myosin activation value AC20 from 2 μM-5 μM)
5,"Cc1cc(C#N)ccc1S(=O)(=O)C(C)(C)C1CCN(C(=O)Nc2ccnnc2)CC1 [Compound 196, 4-(2-((4-cyano-2-methylphenyl)sulfonyl)propan-2-yl)-N-(pyridazin-4-yl)piperidine-1-carboxamide]",++ (++ represents myosin activation value AC20 from 2 μM-5 μM)
6,"CC(C)(C1CCN(C(=O)Nc2ccon2)CC1)S(=O)(=O)c1ccc(C(F)(F)F)nc1 [Compound 113, N-(isoxazol-3-yl)-4-(2-((6-(trifluoromethyl)pyridin-3-yl)sulfonyl)propan-2-yl)piperidine-1-carboxamide]",+ (+ represents myosin activation value AC20 > 5 μM)
7,"C[C@H](O)c1cc(NC(=O)N2CCC(C(F)(F)S(=O)(=O)c3cccc(F)c3)CC2)ccn1 [Compound 97, (S)-4-(difluoro((3-fluorophenyl)sulfonyl)methyl)-N-(2-(1-hydroxyethyl)pyridin-4-yl)piperidine-1-carboxamide]",+ (+ represents myosin activation value AC20 > 5 μM)
8,"N#Cc1ccc(S(=O)(=O)C2(C3CCN(C(=O)Nc4ccnnc4)CC3)CCC2)cc1 [Compound 164, 4-(1-((4-cyanophenyl)sulfonyl)cyclobutyl)-N-(pyridazin-4-yl)piperidine-1-carboxamide]",+++ (+++ represents myosin activation value AC20 < 2 μM)
9,"CC(C)n1cc(S(=O)(=O)CC2CCN(C(=O)Nc3ccncc3)CC2)cn1 [Compound 1, 4-(((1-Isopropyl-1H-pyrazol-4-yl)sulfonyl)methyl)-N-(pyridin-4-yl)piperidine-1-carboxamide]",+ (+ represents myosin activation value AC20 > 5 μM)
10,"O=C(Nc1ccncc1)N1CCC(C2(S(=O)(=O)c3ccc(OC(F)(F)F)cc3)CC2)CC1 [Compound 206, N-(pyridin-4-yl)-4-(1-((4-(trifluoromethoxy)phenyl)sulfonyl)cyclopropyl)piperidine-1-carboxamide]",+++ (+++ represents myosin activation value AC20 < 2 μM)
11,"Cc1cc(S(=O)(=O)C(F)(F)C2CCN(C(=O)Nc3ccnnc3)CC2)n(C)n1 [Compound 23, 4-(((1,3-Dimethyl-1H-pyrazol-5-yl)sulfonyl)difluoromethyl)-N-(pyridazin-4-yl)piperidine-1-carboxamide]",++ (++ represents myosin activation value AC20 from 2 μM-5 μM)
12,"O=C(Nc1ccnnc1)N1CCC(C2(S(=O)(=O)c3cccc(F)c3)CC(F)(F)C2)CC1 [Compound 28, 4-(3,3-Difluoro-1-((3-fluorophenyl)sulfonyl)cyclobutyl)-N-(pyridazin-4-yl)piperidine-1-carboxamide]",++ (++ represents myosin activation value AC20 from 2 μM-5 μM)
13,"C[C@@H](O)c1cc(NC(=O)N2CCC([C@](C)(F)S(=O)(=O)c3cccc(F)c3)CC2)ccn1 [Compound 303, 4-((R)-1-fluoro-1-((3-fluorophenyl)sulfonyl)ethyl)-N-(2-((R)-1-hydroxyethyl)pyridin-4-yl)piperidine-1-carboxamide]",+ (+ represents myosin activation value AC20 > 5 μM)
14,"O=C(Nc1ccnnc1)N1CCC(C(F)(F)S(=O)(=O)c2ccccc2CO)CC1 [Compound 25, 4-(Difluoro((2-(hydroxymethyl)phenyl)sulfonyl)methyl)-N-(pyridazin-4-yl)piperidine-1-carboxamide]",++ (++ represents myosin activation value AC20 from 2 μM-5 μM)
15,"COc1ccccc1S(=O)(=O)C(C)(F)C1CCN(C(=O)Nc2ccnnc2)CC1 (stereo not shown) [Compound 273, 4-(1-fluoro-1-((2-methoxyphenyl)sulfonyl)ethyl)-N-(pyridazin-4-yl)piperidine-1-carboxamide]",++ (++ represents myosin activation value AC20 from 2 μM-5 μM)
16,"CC(C)(C1CCN(C(=O)Nc2ccns2)CC1)S(=O)(=O)c1ccccc1Cl [Compound 208, 4-(2-((2-chlorophenyl)sulfonyl)propan-2-yl)-N-(isothiazol-5-yl)piperidine-1-carboxamide]",++ (++ represents myosin activation value AC20 from 2 μM-5 μM)
17,"Cn1nccc1NC(=O)N1CCC(C(C)(C)S(=O)(=O)c2cccc(F)c2)CC1 [Compound 136, 4-(2-((3-fluorophenyl)sulfonyl)propan-2-yl)-N-(1-methyl-1H-pyrazol-5-yl)piperidine-1-carboxamide]",+ (+ represents myosin activation value AC20 > 5 μM)
18,"CC(F)(C1CCN(C(=O)Nc2ccnnc2)CC1)S(=O)(=O)c1ccc(C#N)cc1 (stereo not shown) [Compound 270, 4-(1-((4-cyanophenyl)sulfonyl)-1-fluoroethyl)-N-(pyridazin-4-yl)piperidine-1-carboxamide]",+++ (+++ represents myosin activation value AC20 < 2 μM)
19,"Cn1cnc(S(=O)(=O)C(C)(F)C2CCN(C(=O)Nc3ccnnc3)CC2)c1 (stereo not shown) [Compound 272, 4-(1-fluoro-1-((1-methyl-1H-imidazol-4-yl)sulfonyl)ethyl)-N-(pyridazin-4-yl)piperidine-1-carboxamide]",+ (+ represents myosin activation value AC20 > 5 μM)
20,"Cn1nc(C(F)F)cc1S(=O)(=O)C(C)(C)C1CCN(C(=O)Nc2ccon2)CC1 [Compound 108, 4-(2-((3-(difluoromethyl)-1-methyl-1H-pyrazol-5-yl)sulfonyl)propan-2-yl)-N-(isoxazol-3-yl)piperidine-1-carboxamide]",++ (++ represents myosin activation value AC20 from 2 μM-5 μM)
21,"Cc1cc(NC(=O)N2CCC(C(C)(F)S(=O)(=O)c3cccc(F)c3)CC2)cnn1 (stereo not shown) [Compound 12, 4-(1-Fluoro-1-((3-fluorophenyl)sulfonyl)ethyl)-N-(6-methylpyridazin-4-yl)piperidine-1-carboxamide]",+ (+ represents myosin activation value AC20 > 5 μM)
22,"CC(C)(C1CCN(C(=O)Nc2cnns2)CC1)S(=O)(=O)c1ccc(C#N)cc1 [Compound 179, 4-(2-((4-cyanophenyl)sulfonyl)propan-2-yl)-N-(1,2,3-thiadiazol-5-yl)piperidine-1-carboxamide]",+++ (+++ represents myosin activation value AC20 < 2 μM)
23,"Cc1ccccc1S(=O)(=O)C(C)(C)C1CCN(C(=O)Nc2ccns2)CC1 [Compound 213, N-(isothiazol-5-yl)-4-(2-(o-tolylsulfonyl)propan-2-yl)piperidine-1-carboxamide]",+++ (+++ represents myosin activation value AC20 < 2 μM)
24,"Cn1cc(S(=O)(=O)C(C)(F)C2CCN(C(=O)Nc3ccon3)CC2)c(Cl)n1 (stereo not shown) [Compound 19, 4-(1-((3-Chloro-1-methyl-1H-pyrazol-4-yl)sulfonyl)-1-fluoroethyl)-N-(isoxazol-3-yl)piperidine-1-carboxamide]",+ (+ represents myosin activation value AC20 > 5 μM)
25,"O=C(Nc1ccncc1)N1CCC(C2(S(=O)(=O)c3cccc(F)c3)CC2)CC1 [Compound 35, 4-(1-((3-fluorophenyl)sulfonyl)cyclopropyl)-N-(pyridin-4-yl)piperidine-1-carboxamide]",+++ (+++ represents myosin activation value AC20 < 2 μM)

# Reference: patent US11123337B2, “4-methylsulfonyl-substituted piperidine urea compounds” (MYOKARDIA, INC., priority 2015, dated 2021)
